Patent US20250000874A1, “BACTERIAL METABOLITES AND THEIR USE IN REDUCING INFLAMMATION” (LOYOLA UNIVERSITY OF CHICAGO, priority 2023, published 2025)

Columns and labels:
NF-kB = assay: MQ on translocation of NF-kB (p65) to the nucleus in HCECs, western blot; assay type: cell-based, human; conditions: MQ 50 μM overnight, FLA 100 ng/ml 3 hours
Method: Materials and Methods: Human corneal epithelial cells were grown in culture. Cells were then plated in DMEM. The cells cultures were then kept at 37° C. with 5% CO2. Once ready, HCECs were then incubated with MQ at a concentration of 50 uM overnight. […] Samples were treated for 3 hours and then samples were collected. Nuclear and cytoplasmic fractions were obtained using 0.1% NP-40 buffer. Cells were pelleted and the supernatant was discarded. Cells were then treated with 25 μl of NP-40 lysis buffer. Upon addition of the buffer cells were centrifuged for 10 minutes at 3000 rpm at 4° C. The supernatant was collected which is the cytoplasmic fraction and the remaining pellet was the nuclear fraction. The pellet was then washed three times to remove any remaining cytoplasmic fraction.
Both fractions were then treated with 2x SDS loading buffer and the protein was denatured at 100° C. and placed on ice. Proteins were run on a gel at […] until the dye front neared the bottom of the gel. Protein was then dry transferred to a membrane. The membrane was blocked in 5% blocking buffer overnight. The following day the membrane was washed three times with PBS-T and anti-mouse p65-NF-kB rabbit polyclonal antibody was added. […]
The inhibitory effects on the translocation of NF-kB from the cytoplasm to the nucleus following stimulation with FLA was also assessed. […]

[1] = test system: Bone Marrow Derived Macrophage (BMDM); assay: NC on TNFα production by BMDMs in response to TLR agonists (Example 7); assay type: cell-based, mouse
Method: FIG. 32. NC Reduces TNFα Response to Toll 3 Agonist. Macrophages were cultured at a uniform density and allowed to adhere (in the case of BMDMs) or differentiate with PMA (in the case of THP-1s). macrophages were then incubated overnight in NC at a concentration of 50 uM at 37° C. The following day, the BMDMs were stimulated with P(I:C) at 50 ug/mL, 100 ug/mL, or 200 ug/mL for four hours and the THP-1s were stimulated at 200 […]. Supernatants were collected and TNFα concentrations were determined via ELISA.
FIG. 33. TNFα production from Bone Marrow Derived Macrophage (BMDM) stimulation. BMDMs were cultured in DMEM supplemented with Macrophage Colony Stimulating Factor (M-CSF) at 10 ng/ml. The macrophages were then incubated overnight in NC at a concentration of 50 uM at 37° C. The following day they were stimulated with LPS at 1 ng/ml, 10 ng/ml for four hours. Supernatants were collected and TNFα concentrations were determined via ELISA.
Bone marrow derived macrophages were collected from adult mice (6-8 weeks old). Femurs were obtained and cut with scissors. The connecting muscles were removed and the bones were flushed with PBS. PBS was collected and cells were counted and adjusted to the desired concentrations. […] After 7 days the cells were ready for use. […]
Once ready, macrophages were then incubated with NC at a concentration of 50 uM overnight. […] Samples were treated for 4 hours and then Supernatant was then collected and the concentration of TNFα was then determined via the commercially available ELISA MAX Deluxe kit (Biolegend), with measurements reported in pg/mL.
To investigate the effects NC, macrophages were stimulated in vitro with various TLR agonists, and the production of cytokines was measured via ELISA. […] After 4 hours, supernatant was collected and the concentration of TNFα was determined via ELISA.
Further investigation of NC's impact on TLR signaling involved treating BMDMs with the TLR 4 agonist LPS. […] After 4 hours supernatant was collected and concentration of TNFα was measured via ELISA. […]

[2] = In vivo toxicity of JE given I.P.: serum ALT and organ histology; conditions: JE 50 μM twice daily I.P. for 3 or 5 days
Method: To test if JE has any toxicity, we first incubated murine macrophages with JE at different concentrations at 37° C. for two days, and determined viability of the cells. […] Further we injected the JE at 50 μM twice daily via I.P. for 3 or 5 days and then determined ALT levels in sera and examined the morphology in key organs, liver, kidney, spleen, intestines etc.

## Prednicarbate [MQ]
NF-kB
  translocation of NF-kB to the nucleus: inhibited

## CCCCCCCCCCCCCCCC(=O)N[C@@H](C(=O)O)[C@H](C)O [NC, N-Palmitoyl-D-Threonine]
[1]; NC 50 μM overnight, Poly (I:C) 50, 100, 200 μg/ml, 4 hours
  production and secretion of TNFα: reduced
[1]; NC alone, 50 μM overnight
  production of TNFα: not found to increase
[1]; NC overnight, LPS 1 ng/ml and 10 ng/ml, 4 hours
  cytokine (TNFα) production in response to TLR 4 agonist LPS: able to reduce

## CC(=O)O[C@@H]1CC[C@H]2[C@H]3CC[C@H]4CC(F)(F)CC[C@]4(C)[C@H]3CC[C@]12C [JE, 3,3-Difluoro-5-alpha-androstan-17-beta-yl acetate]
[2]
  tissue damage in organs by histology (liver, kidney, spleen, intestines): did not see any tissue damage
[2]; vs control group
  ALT levels in sera: no significant higher levels
